Laboratory results as given in article PMC10082830, “A tailored tetravalent peptide displays dual functions to inhibit amyloid β production and aggregation” (Communications Biology, 2023).
Ends that are not written are not given here.

How the values were obtained:
Aβ42 [1] = molecular target: T1, Aβ42 (Homo sapiens, UniProt P05067); details: equivalent molar concentration, after 8 h of incubation, Thioflavin T-binding assay; cited from earlier work
T1 construct: the plate was incubated with various concentrations of Aβ1–28, Aβ40, or Aβ42 (Peptide Institute); purchased Peptide Institute
T1 sequence (P05067 672-713 limits assumed): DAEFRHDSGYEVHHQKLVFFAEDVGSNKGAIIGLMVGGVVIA

[2] = system: 7WD10 Chinse Hamster Ovary (CHO) cells stably expressing human APP; assay: Aβ production in 7WD10 cells, western blot of culture medium and cell lysates; assay type: cell-based, Chinese Hamster; details: 48 h, tetravalent peptides 50 µM, LME-mono 100 and 200 µM, n = 3
Protocol: 7WD10 Chinse Hamster Ovary (CHO) cells were treated with each tetravalent peptide (50 µM) for 48 h; cell lysates (for intracellular C99 and Aβ) and culture medium (for extracellular Aβ) from peptide-treated and vehicle control-treated cells were analyzed by western blot. Data are graphed as the percentage of the control value, showing the mean ± SE; n = 3. Significance vs. vehicle was calculated by analysis of variance (ANOVA), followed by one-sided Dunnett’s test; *P < 0.05, **P < 0.01. c Effect of increasing concentrations of LME-tet on Aβ production (left panel). 7WD10 cells were treated with vehicle control or LME-tet at the indicated concentrations for 48 h, and the culture medium was analyzed by western blot. Data are graphed as the percentage of the control value, showing the mean ± SE; n = 3. Significance vs. vehicle was calculated by ANOVA, followed by one-sided Dunnett’s test; *P < 0.05, **P < 0.01. Effect of LME-mono on Aβ production (right panels). 7WD10 cells were treated with vehicle control or LME-mono at the indicated concentrations for 48 h; cell lysates (for intracellular C99 and Aβ) and culture medium (for extracellular Aβ) were analyzed by western blot. […] Significance vs. vehicle was calculated by ANOVA, followed by one-sided Dunnett’s test; *P < 0.05. d Binding of LME-tet and LME-mono to Aβ1-28, Aβ40 and Aβ42 was measured by enzyme-linked immunosorbent assay (ELISA). […]

Aβ1–28 = assay: ELISA binding between Aβ and LME peptides; details: LME-tet (8.3 µM) or LME-mono (33 µM) applied on plate, Aβ 2 h at room temperature, n = 3
Protocol: (§1) The indicated amounts of LME-tet (8.3 µM) or LME-mono (33 µM) were applied onto each well of a regular 96-well ELISA plate (Thermo Fisher Scientific) and incubated overnight for 24 h. After blocking, the plate was incubated with various concentrations of Aβ1–28, Aβ40, or Aβ42 (Peptide Institute) for 2 h at room temperature. Bound Aβ was detected using mouse monoclonal anti-human Aβ antibody 82E1 (Immuno-Biological Laboratories Co., Ltd.) and HRP-conjugated horse anti-mouse IgG antibody (Cell Signaling Technology).

Aβ40 = molecular target: T2, Aβ40 (Homo sapiens, UniProt P05067); assay: ELISA binding between Aβ and LME peptides; details: LME-mono (33 µM) applied on plate, n = 4
T2 construct: purchased Peptide Institute
T2 sequence (P05067 672-711 limits assumed): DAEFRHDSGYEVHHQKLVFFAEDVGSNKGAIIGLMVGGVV
Protocol: as §1

Aβ42 [3] = molecular target: T1, Aβ42; assay: ELISA binding between Aβ and LME peptides; details: LME-mono (33 µM) applied on plate, n = 3
Protocol: as §1

7WD10 cells = assay: Lysosomal protease inhibitor treatment of 7WD10 cells, western blot; assay type: cell-based, Chinese Hamster; details: LME-tet (25 µM) or LME-mono (100 µM), lysosomal PI cocktail (E-64, leupeptin), 48 h
Aβ42 [4] = molecular target: T1, Aβ42; assay: Circular dichroism spectroscopy of Aβ42 conformational change; details: Aβ42 20 µM, peptide 2 µM, 50 mM sodium phosphate buffer pH 7.4, 37 °C, far-UV CD, molar ellipticity at 217 nm
Protocol: Fig. 5 LME-tet inhibits the conformational change and subsequent fibrillation of Aβ42. a Binding of LME-tet to extracellular Aβ. Culture medium from 7WD10 cells recovered after 48 h of growth was treated with biotinylated LME-tet (50 µM) or LME-mono (200 µM). Medium was then incubated with streptavidin beads, and coprecipitating Aβ40 and Aβ42 were analyzed by western blot using anti-Aβ or anti-Aβ42-specific antibody. b Time-dependent conformational change in Aβ42 (20 µM) in the presence of LME-tet (2 µM, lower left panel) or LME-mono (2 µM, upper right panel). Far-UV circular dichroism (CD) spectra (wavelength 190–250 nm) were measured at the indicated time points. […] Data represent the mean ± SE; n = 3–4. c Fibrillation profiles of Aβ42 in the presence of LME-tet (2 µM) or LME-mono (2 µM), measured by Thioflavin T-binding assay. […] Data represent the mean ± SE; n = 3. d Fibrillation profiles of Aβ42 in the presence of LME-tet (2 µM) or LME-mono (2 µM), analyzed by electron microscopy; representative images at ×10 K, ×50 K, and ×200 K magnification (left, right, and center, respectively) are shown. Scale bars indicate 2 µm, 400 nm, and 100 nm, respectively. e Effects of LME-tet (2 µM) on growth of Aβ42 fibril in the presence of 2% (v/v) Aβ42 fibril-seed, measured by the Thioflavin T-binding assay. […]

| Substance | inhibition of fibrillation of Aβ42 (Aβ42 [1]) [%] | inhibitory effect on production of Aβ [2] | binding to Aβ1–28 (Aβ1–28) | binding to Aβ40 (Aβ40) | binding to Aβ42 (Aβ42 [3]) | PI-dependent increase of intracellular APP, C99, Aβ, p62 and LC3-II (7WD10 cells) | conformational change of Aβ42 (β-sheet formation) (Aβ42 [4]) |
| --- | --- | --- | --- | --- | --- | --- | --- |
| Ac-KL-NVF-NFA-NH2 | 40 | – | – | – | – | – | – |
| PKLRMKE [LME-mono, monomeric peptide with the same motif, Pro-Lys-Leu-Arg-Met-Lys-Glu] | – | has no effect | unable to bind | unable to bind | unable to bind | does not affect | no effect was observed |
